The test system of test [1] is epimastigotes of T. cruzi Arequipa strain. Briefly: Screening against extracellular epimastigotes (resazurin). The test is classed as cell-based, Trypanosoma cruzi. The conditions noted are these: for Selectivity Index Epimast.: IC50 Vero cells/IC50 epimastigotes; for IC50: Trypanosoma cruzi. Here is the method: Trypanocidal activity against epimastigotes of T. cruzi Arequipa strain (MHOM/Pe/2011/Arequipa, discrete typing unit V) was tested as previously described. In short, 5 × 10^5 epimastigotes·mL^−1 were treated by adding the tested compounds at a concentration range from 100 to 0.2 µM in 96-well microplates (200 µL·well^−1) for 48 h. Subsequently, resazurin sodium salt (Sigma-Aldrich) was added to be incubated for further 24 h. Finally, the absorbance was measured, and the trypanocidal activity was expressed as the IC50 (inhibitory concentration 50) using GraphPad Prism 6 software. Each compound concentration was tested in triplicate in three independent experiments.
Background: Resazurin is reduced to fluorescent resorufin, in cell work by metabolically active cells.

The test system of a further test is Mammalian Vero cells. Put plainly: Cytotoxicity test on Vero cells (resazurin). The test is classed as cell-based. The conditions noted are these: Chlorocebus sabaeus, 72 h; Table 1; Vero cells, 48 h + 24 h resazurin; read-out: Toxicity IC50 Vero Cell. How it is done:
Mammalian Vero cells (EACC No. 84113001), cultured as previously reported, were used to determine the cytotoxicity of the tested compounds [56]. In short, 1.25 × 10^4 Vero cells·mL^−1 were treated by adding the compounds at a concentration range from 400 to 1 µM in 96-well microplates (200 µL·well^−1) at 37 °C for 48 h. Subsequently, resazurin sodium salt (Sigma-Aldrich) was added to be incubated for further 24 h. Finally, cell viability was determined following the same procedure as described to assess the trypanocidal activity in the epimastigotes. Each compound concentration was tested in triplicate in three independent experiments.

For test [2], the system named is Trypanosoma cruzi intracellular amastigotes. Briefly: Screening against intracellular amastigotes in Vero cells (Giemsa counting). The test is classed as cell-based. The conditions noted are these: for Selectivity Index Amast.: IC50 Vero cells/IC50 amastigotes; for IC50: Trypanosoma cruzi, Table 1, intracellular amastigotes in Vero cells, 72 h, read-out: Activity IC50 Amast. How it is done: (§1) Trypanocidal activity against amastigotes was determined according to the literature reported previously. […]. […] Each compound concentration was tested in triplicate in four separate determinations.

In test [3] the test system is Trypanosoma cruzi bloodstream trypomastigotes (BTs). Put plainly: Screening against bloodstream trypomastigotes (resazurin). Type of test: cell-based. The conditions noted are these: for Selectivity Index Trypomast.: IC50 Vero cells/IC50 trypomastigotes; for IC50: Trypanosoma cruzi, Table 1, bloodstream trypomastigotes, 24 h treatment + 4 h resazurin, read-out: Activity IC50 Trypomast. How it is done:
2 × 10^6 Bloodstream trypomastigotes (BTs), obtained by cardiac puncture from infected BALB/c mice as previously described, were treated by adding the tested compounds at a concentration range from 50 to 0.1 µM in 96-well microplates (200 µL·well^−1) at 37 °C. After 24 h of treatment, resazurin sodium salt (Sigma-Aldrich) was added to be incubated for further 4 h. Finally, trypanocidal activity was determined following the same procedure as described to assess the trypanocidal activity in the epimastigotes. Each compound concentration was tested in triplicate in three independent experiments.

The test system of test [4] is Trypanosoma cruzi amastigotes in Vero cells. Put plainly: Infection rate and amastigotes per Vero cell over 10 days. The test is classed as cell-based. The conditions noted are these: IC25 concentrations, measured at 2 days intervals for 10 days. Here is the method: Before going ahead on in vivo trials, the in vitro infection rate and the average number of amastigotes per Vero cell were also measured at 2 days intervals for 10 days after treating the infected cultures with BZN and potential candidates (8, 10, and 15) (Figure 1) at ICH25 concentrations resulting from amastigotes screening. […]. Fast-acting drugs are urgently needed, and this feature is an additional advantage since they can eliminate the parasite in a few doses.
as §1
Figure 1 (A) Percentage of infected Vero cells and (B) number of amastigotes of Trypanosoma cruzi per Vero cell exposed to benznidazole (BZN), 8, 10 and 15. Values constitute means of three separate determinations ± standard deviation. * Significant differences between untreated and treated parasites for α = 0.05. dpi, days post-infection.

The subject of test [5] is Trypanosoma cruzi. Briefly: Parasitemia monitoring in infected BALB/c mice, acute Chagas disease. The test is classed as in vivo. The conditions noted are these: oral 20 mg/kg per day for 5 days from 9th dpi, versus untreated. Here is the method:
(§2) Infection was carried out by intraperitoneal inoculation of 5 × 10^5 BTs of T. cruzi per mouse in 0.2 mL PBS [56]. The mice were treated by oral route (~200 µL) once daily for 5 consecutive days. The treatment for mice treated in the acute and chronic phases began when the infection was confirmed (9th day post-infection (dpi)) and was established that the animals had entered the chronic phase (100th dpi), respectively.
(§3) The mice were divided into six groups (n = 3 per group): 0, negative control group (uninfected and untreated mice); I, positive control group (infected and untreated mice); II, BZN group (mice infected and treated with BZN); III, 8 group (mice infected and treated with 8); IV, 10 group (mice infected and treated with 10); V, 15 group (mice infected and treated with 15). The tested compounds and BZN were prepared at 2 mg·mL^−1 in an aqueous suspension vehicle containing 5% (v/v) DMSO and 0.5% (w/v) hydroxypropyl methylcellulose, as previously reported. Therefore, doses of 20 mg·kg^−1 per day were administered for 5 consecutive days, and vehicle only was administered in the negative and positive control groups.
(§4) All in vivo assays for the evaluation of compounds in the acute and chronic CD (Scheme 1)—monitoring of parasitemia, immunosuppression, PCR [59, 60], ELISA [56], and clinical analysis [56]—were performed as previously described. PCR was based on the Spliced Leader (SL) intergenic region sequence of T. cruzi (for detailed description, see literature reported previously).

For test [6], the system named is Trypanosoma cruzi. Briefly: Parasitemia reactivation after immunosuppression in BALB/c mice. The test is classed as in vivo. The conditions noted are these: acute and chronic CD, 20 mg/kg per day for 5 days. How it is done: Secondly, the experimental cure was determined using a double checking widely used in in vivo trypanocidal trials. This double checking—based on immunosuppression and PCR (Figure 2B,C, respectively)—was performed to evaluate the treatment effectiveness and the disease extent in both acute and chronic CD at the end of the in vivo timeline. The mice whose parasitemia and PCR remain negative after immunosuppression are considered cured.
Immunosuppression enhances the reactivation of any residual infection, which is proportional to the parasite survival rate.
as §2, §3, §4

Test [7] deals with Trypanosoma cruzi. Put plainly: Anti-T. cruzi IgG (ELISA) and splenomegaly in treated BALB/c mice. Type of test: in vivo. The conditions noted are these: treated BALB/c mice versus untreated; excluding IgG levels of chronic CD. How it is done:
Otherwise, the immune status of the mice was evaluated—through the titer of total anti-T. cruzi IgG and the splenomegaly (Figure S1)—since it is a characteristic linked to the parasite load and the effectiveness ascribed to the potential candidates. […].
as §4
Figure S1. A) Anti-Trypanosoma cruzi immunoglobulin G levels, expressed in absorbance at 492 nm, at different days post-infection (dpi) for each group of mice treated during the acute and chronic phases of Chagas disease: control (untreated), benznidazole (BZN), 8, 10 and 15. Blank and uninfected mice are also […]
included. […] Values are the means of three mice ± standard deviation. (IS) immunosuppression. * Significant differences between untreated and treated mice for α =
0.05. B) Weight percentage of spleens in the chronic Chagas disease for each group of mice treated during the acute and chronic phases of the disease: control (untreated), benznidazole (BZN), 8, 10 and 15. Values are the means of three mice ± standard deviation. In brackets: reduction of splenomegaly in comparison to […]
(1 picture or pasted object on this page, not shown here)

Test [8] relates to epimastigotes of T. cruzi Arequipa. Briefly: 1H NMR analysis of excreted metabolites. The test is classed as cell-based, Trypanosoma cruzi. The conditions noted are these: IC25 concentrations, 72 h. How it is done: 5 × 10^5 epimastigotes·mL^−1 of T. cruzi Arequipa were treated by adding the tested compounds at IC25 concentrations in 25 cm^2 cell culture flasks at 28 °C for 72 h. Untreated controls were also included. Cultures were then centrifuged and filtered, and the metabolites of the supernatants were analyzed using a ^1H NMR spectrometer (VARIAN DIRECT DRIVE 500 MHz […]) with AutoX probe, D2O as solvent and 2,2-dimethyl-2-silapentane-5-sulphonate as the reference signal. Chemical shifts were expressed in parts per million (ppm), and analyses were conducted as previously reported.

In the next test the test system is Trypanosoma cruzi Fe-SOD. Briefly: SOD enzymatic inhibition, Fe-SOD. The test is classed as biochemical. Here is the method: (§5) Excreted Fe-SOD protein—obtained and quantified as previously described [64]—and commercial Cu/Zn-SOD from human erythrocytes (Sigma-Aldrich) were exposed to the tested compounds at a concentration range from 100 to 0.1 µM to determine in vitro activities using the method previously described.

For test [9], the target named is T1, human erythrocytes CuZn-SOD (Homo sapiens, UniProt P00441).
T1 construct: commercial Cu/Zn-SOD from human erythrocytes (Sigma-Aldrich); purchased Sigma-Aldrich; host or cells: human erythrocytes
Briefly: SOD enzymatic inhibition, CuZn-SOD. Type of test: biochemical. The conditions noted are these: 100 to 0.1 µM, read-out: CuZn-SOD IC50 (in brackets). How it is done:
as §5

The mark [10] stands for this setting: Table 1, T. cruzi epimastigotes, 48 h treatment + 24 h resazurin, read-out: Activity IC50 Epimast.
The mark [11] stands for this setting: Table S1, cultured epimastigote form of T. cruzi, read-out: Activity IC50.
Setting [12] is: 72 h, Table 1, T. cruzi epimastigotes, 48 h treatment + 24 h resazurin, read-out: Activity IC50 Epimast.

Results on 4 compounds are retold here after paper PMC8147293, “Library of Selenocyanate and Diselenide Derivatives as In Vivo Antichagasic Compounds Targeting Trypanosoma cruzi Mitochondrion” (Pharmaceuticals, 2021).

Read-outs that look alike come from different tables or passages of the source. A value given as a limit tells only on which side of the number the result lay.

T1 sequence (P00441 whole entry): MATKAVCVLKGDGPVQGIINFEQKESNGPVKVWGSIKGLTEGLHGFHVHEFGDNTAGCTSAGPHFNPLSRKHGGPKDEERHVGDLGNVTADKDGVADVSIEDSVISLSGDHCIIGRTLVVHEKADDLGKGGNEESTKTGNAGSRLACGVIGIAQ

On to `CSc1ccc(C[Se][Se]Cc2ccc(SC)cc2)cc1` [compound 10], for which, in [1], the “Selectivity Index Epimast.” value was 75. Also, the IC50 – broadly, the midpoint of a concentration-inhibition curve – was 1800 ± 200 nM in [1] (setting [10]); at most 10000 nM in test [1] (setting [11]); 1200 ± 200 nM in test [2]; 1700 ± 300 nM in test [3]; above 100000 nM in test [9]. For the same compound, in the test with Mammalian Vero cells, the CC50 worked out at 135000 ± 6300 nM. In test [2], the “Selectivity Index Amast.” value is listed as 112. In addition, the “Selectivity Index Trypomast.” value in test [3] was 79. In addition, the “infection rate and average number of amastigotes per Vero cell” value in [4] is “decrease in both infection rate and number of amastigotes per cell in a time-dependent manner”. In the test with Trypanosoma cruzi [5], the “parasitemia levels (counting BTs) during the acute CD” value is listed as “slight activity”. Besides, in the test with Trypanosoma cruzi [6], the “reactivation of infection after immunosuppression (in words)” value is listed as “light activity”. Further, the “total anti-T. cruzi IgG levels and splenomegaly” value with Trypanosoma cruzi [7] is “Slight or non-significant reductions”. The “variation of excreted metabolites versus untreated parasites” value in [8] is below 10%. The compound further came in with a Fe-SOD inhibition in the test on Trypanosoma cruzi Fe-SOD (at 100 µM) of 100%.

Take `N#C[Se]Cc1ccccc1[N+](=O)[O-]` [compound 15]: the “Selectivity Index Epimast.” value in test [1] came out at 20. For the same compound, the half-maximal inhibitory concentration (IC50) in test [1] (setting [10]) is 900 ± 100 nM; in test [1] (setting [11]), at most 10000 nM; in test [2] it was 500 nM; in [3] it was 1300 ± 300 nM; in test [9] it was above 100000 nM. Besides, the CC50 in the test on Mammalian Vero cells was determined as 17900 ± 1000 nM. In addition, the “Selectivity Index Amast.” value in test [2] was found to be 36. Besides, in test [3], the “Selectivity Index Trypomast.” value turned out to be 14. For the same compound, in test [4], the “infection rate and average number of amastigotes per Vero cell” value is “decrease in both infection rate and number of amastigotes per cell in a time-dependent manner”. Further, the “parasitemia levels (counting BTs) during the acute CD” value in the test with Trypanosoma cruzi [5] is given as “non-significant differences”. Further, the “reactivation of infection after immunosuppression (in words)” value in the test on Trypanosoma cruzi [6] is “non-significant differences”. Besides, the “total anti-T. cruzi IgG levels and splenomegaly” value in the test on Trypanosoma cruzi [7] was “Slight or non-significant reductions”. Moreover, the “excretion of metabolites versus untreated parasites (in words)” value in test [8] is “strikingly increased”. Moreover, the “SOD inhibitory activity (in words)” value in the test on Trypanosoma cruzi Fe-SOD (100 to 0.1 µM) is listed as “no inhibitory activity”.

Consider `O=S(=O)(Nc1ccc([Se][Se]c2ccc(NS(=O)(=O)c3ccc(-c4ccccc4)cc3)cc2)cc1)c1ccc(-c2ccccc2)cc1` [compound 46], for which the “Selectivity Index Epimast.” value in test [1] stood at 18. Also, the concentration for half-maximal inhibition (IC50) was 2700 ± 800 nM in test [1] (setting [12]), at most 10000 nM in test [1] (setting [11]), 2300 ± 100 nM in test [2] and 2000 ± 300 nM in test [3] (28 h). For the same compound, the CC50 in the test with Mammalian Vero cells is 48600 ± 3500 nM. Further, in test [2], the “Selectivity Index Amast.” value is given as 21. Further, in test [3], the “Selectivity Index Trypomast.” value is reported as 24.

Take `Cn1ccnc1S(=O)(=O)Nc1ccc([Se][Se]c2ccc(NS(=O)(=O)c3nccn3C)cc2)cc1` [compound 47]: the “Selectivity Index Epimast.” value in test [1] is reported as 12. Also, the IC50 in [1] (setting [12]) is 3600 ± 300 nM; in test [1] (setting [11]), at most 10000 nM; in [2] it was 3000 ± 400 nM; in test [3] (28 h) it was 3800 ± 400 nM. For the same compound, in the test on Mammalian Vero cells, the CC50 worked out at 44700 ± 3000 nM. Besides, in test [2], the “Selectivity Index Amast.” value came out at 15. In addition, the “Selectivity Index Trypomast.” value in test [3] turned out to be 12.
